Data published in patent US6949536B2, “Sulfonylbenzene compounds as anti-inflammatory/analgesic agents” (Pfizer, Inc., priority 1998, dated 2005).
Counter-ions that a name gives are not always drawn.

| Structure (SMILES) | melting point [°C] |
| --- | --- |
| CS(=O)(=O)c1ccc(-n2nc(C(F)(F)F)cc2-c2ccc(-c3cocn3)cc2)cc1 (as salt: hydrochloride) [Example 95, 4-{4-[1-[4-(Methylsulfonyl)phenyl]-3-(trifluoromethyl)-1H-pyrazol-5-yl]phenyl}-1,3-oxazole] | 175 to 177 |
| CS(=O)(=O)c1ccc(C2=C(c3ccc(-c4ccoc4)cc3)C(=O)OC2)cc1 [Example 34, 3-[4-(3-Furyl)phenyl]-4-[4-(methylsulfonyl)phenyl]-2-(5H)-furanone] | 188 to 190 |
| Cc1cc(-c2cc(C(F)(F)F)nn2-c2ccc(S(N)(=O)=O)c(F)c2)ccc1-c1cscn1 (as salt: hydrochloride) [Example 113, 2-Fluoro-4-[5-[3-methyl-4-(1,3-thiazol-4-yl)phenyl]-3-(trifluoromethyl)-1H-pyrazol-1-yl]benzenesulfonamide] | 125 to 127 |

Now from value to molecule:

| melting point [°C] | Structure (SMILES) |
| --- | --- |
| 196 to 198 | CNC(=O)c1cc(-c2ccc(-c3ccco3)cc2)n(-c2ccc(S(C)(=O)=O)c(F)c2)n1 [Example 131, N-Methyl-1-[3-fluoro-4-(methylsulfonyl)phenyl]-5-[4-(2-furyl)phenyl]-1H-pyrazole-3-carboxamide] |
| 197 to 198 | Cc1cc(-c2nc(C(F)(F)F)cn2-c2ccc(S(C)(=O)=O)c(F)c2)ccc1-c1cscn1 [Example 178, 1-[3-Fluoro-4-(methylsulfonyl)phenyl]-2-[3-methyl-4-(4-thiazolyl)phenyl]-4-trifluoromethyl-1H-imidazole] |
| 112.5 to 115 | CS(=O)(=O)c1ccc(-n2cc(C(F)(F)F)nc2-c2ccc(-c3cscn3)cc2)cc1F [Example 153, 1-[3-Fluoro-4-(methylsulfonyl)phenyl]-2-[4-(4-thiazolyl)phenyl]-4-trifluoromethyl-1H-imidazole] |
